According to patent publication US11691971B2, “Naphthyridinone compounds as JAK2 V617F inhibitors” (Incyte Corporation, priority 2020, dated 2023):
Counter-ions that a name gives are not always drawn.

Columns and labels:
[1] = target: catalytic domain (JH1, amino acids 808-1132) of human JAK2 (Homo sapiens (Human), UniProt O60674); assay: JAK2 HTRF Enzyme Activity Assay; format: biochemical; conditions: ATP 30 μM, 60 minutes at 25° C.; read-out: ENZ 30UMATP IC50
Description: Example D. JAK2 HTRF Enzyme Activity Assay
JAK2 enzyme activity assays utilize catalytic domain (JH1, amino acids 808-1132) of human JAK2 expressed as N-terminal His-tagged protein in a baculovirus expression system (BPS Bioscience, Catalog #40450). The assays was conducted in black 384-well polystyrene plates in a final reaction volume of 20 μL. JAK2 (0.015 nM) was incubated with compounds (100 nL serially diluted in DMSO) in the presence of ATP (30 μM or 1 mM) and 500 nM Biotin-labeled […] (SEQ ID NO.: 1) peptide (BioSource International, custom synthesis) in assay buffer (50 mM Tris, pH=7.5, 10 mM MgCl2, 0.01% Brij-35, 0.1% BSA, 1 mM EGTA, 5% Glycerol and 5 mM DTT) for 60 minutes at 25° C. The reactions were stopped by the addition of 10 μL of detection buffer (50 mM Tris, pH 7.8, 0.5 mg/mL BSA, 150 mM NaCl), supplemented with EDTA, LANCE Eu-W1024 anti-phosphotyrosine (PY20), (PerkinElmer, Catalog #AD0067) and Streptavidin SureLight APC (PerkinElmer Catalog #CR130-100), for a final concentration of 15 mM, 1.5 nM and 75 nM, respectively. HTRF signals were read after 30 minutes incubation at room temperature on a PHERAstar FS plate reader (BMG LABTECH). Data was analyzed with IDBS XLfit and GraphPad Prism 5.0 software using a four parameter dose response curve to determine IC50 for each compound.

[2] = target: catalytic domain (JH1, amino acids 826-1132) of human JAK2 (Homo sapiens (Human), UniProt O60674); assay: JAK2 LanthaScreen JH1 Binding Assay; conditions: JAK2 JH1 1.5 nM, 50 nM tracer, 2 hours at 25° C.; read-out: JH1BIND IC50
Sequence of catalytic domain (JH1, amino acids 826-1132) of human JAK2 (O60674 826-1132): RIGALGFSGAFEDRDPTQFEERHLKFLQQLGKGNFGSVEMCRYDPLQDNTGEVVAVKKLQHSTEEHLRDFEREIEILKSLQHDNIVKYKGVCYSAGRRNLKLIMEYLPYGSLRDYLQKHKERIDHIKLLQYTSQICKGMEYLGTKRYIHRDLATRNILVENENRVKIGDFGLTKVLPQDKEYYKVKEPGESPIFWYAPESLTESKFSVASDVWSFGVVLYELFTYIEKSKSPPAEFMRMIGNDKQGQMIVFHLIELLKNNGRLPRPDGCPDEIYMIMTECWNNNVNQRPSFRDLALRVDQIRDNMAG
Description: Example A. JAK2 LanthaScreen JH1 Binding Assay
(§1) JAK2 JH1 binding assay utilizes catalytic domain (JH1, amino acids 826-1132) of human JAK2 expressed as N-terminal FLAG-tagged, biotinylated protein in a baculovirus expression system (Carna Biosciences, Product #08-445-20N). The assay was conducted in black 384-well polystyrene plates in a final reaction volume of 20 μL. JAK2 JH1 (1.5 nM) was incubated with compounds (100 nL serially diluted in DMSO) in the presence of 50 nM fluorescent JAK2-JH1 tracer and 0.5 nM Streptavidin-Tb cryptate (Cisbio Part #610SATLB) in assay buffer (50 mM Tris, pH=7.5, 10 mM MgCl2, 0.01% Brij-35, 0.1% BSA, 1 mM EGTA, 5% Glycerol and 5 mM DTT). Non-specific binding was accessed in the presence of 2 mM ATP. After incubation for 2 hours at 25° C., LanthaScreen signals were read on a PHERAstar FS plate reader (BMG LABTECH). Data was analyzed with IDBS XLfit and GraphPad Prism 5.0 software using a four parameter dose response curve to determine IC50 for each compound.

[3] = target: pseudo-kinase domain (JH2) of human V617F mutant JAK2 (Homo sapiens (Human), UniProt O60674, F794H/V617F/W659A/W777A); assay: JAK2 LanthaScreen JH2-V617F Binding Assay; conditions: JAK2 JH2-V617F 0.26 nM, 50 nM tracer, 1 hour at 25° C.; read-out: JH2BINDING_V617F IC50
Sequence of pseudo-kinase domain (JH2) of human V617F mutant JAK2 (O60674 536-812 V617F/W659A/W777A/F794H): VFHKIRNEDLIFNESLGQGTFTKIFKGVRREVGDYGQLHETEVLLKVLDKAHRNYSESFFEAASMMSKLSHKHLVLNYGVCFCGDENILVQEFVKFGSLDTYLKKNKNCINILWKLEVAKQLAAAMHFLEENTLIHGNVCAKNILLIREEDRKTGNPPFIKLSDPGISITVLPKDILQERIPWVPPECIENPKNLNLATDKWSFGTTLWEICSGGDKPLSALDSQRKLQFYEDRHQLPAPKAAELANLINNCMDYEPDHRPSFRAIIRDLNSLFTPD
Description: The assay was conducted in black 384-well polystyrene plates in a final reaction volume of 20 μL. […] Non-specific binding was accessed in the presence of 2 mM ATP. After incubation for 1 hour at 25° C., LanthaScreen signals were read on a PHERAstar FS plate reader (BMG LABTECH). Data was analyzed with IDBS XLfit and GraphPad Prism 5.0 software using a four parameter dose response curve to determine IC50 for each compound.

[4] = target: pseudo-kinase domain (JH2) of human Wild Type JAK2 (Homo sapiens (Human), UniProt O60674, F794H/W659A/W777A); assay: JAK2 LanthaScreen JH2-WT Binding Assay; conditions: JAK2 JH2-WT 0.145 nM, 50 nM tracer, 1 hour at 25° C.; read-out: JH2BIND_WT IC50
Sequence of pseudo-kinase domain (JH2) of human Wild Type JAK2 (O60674 536-812 W659A/W777A/F794H): as the sequence (O60674 536-812 V617F/W659A/W777A/F794H) above, with F82V counted along it
Description: Example B. JAK2 LanthaScreen JH2-WT Binding Assay
as §1, with “The” for “JAK2 JH1 binding assay utilizes catalytic domain (JH1, amino acids 826-1132) of human JAK2 expressed as N-terminal FLAG-tagged, biotinylated protein in a baculovirus expression system (Carna Biosciences, Product #08-445-20N). The”, “JH2-WT (0.145” for “JH1 (1.5”, “Fluorescent JAK2-JH2 Tracer (MedChem Express Catalog #HY-102055)” for “fluorescent JAK2-JH1 tracer”, “0.25” for “0.5”, “1 hour” for “2 hours”

Sequence of catalytic domain (JH1, amino acids 808-1132) of human JAK2 (O60674 808-1132): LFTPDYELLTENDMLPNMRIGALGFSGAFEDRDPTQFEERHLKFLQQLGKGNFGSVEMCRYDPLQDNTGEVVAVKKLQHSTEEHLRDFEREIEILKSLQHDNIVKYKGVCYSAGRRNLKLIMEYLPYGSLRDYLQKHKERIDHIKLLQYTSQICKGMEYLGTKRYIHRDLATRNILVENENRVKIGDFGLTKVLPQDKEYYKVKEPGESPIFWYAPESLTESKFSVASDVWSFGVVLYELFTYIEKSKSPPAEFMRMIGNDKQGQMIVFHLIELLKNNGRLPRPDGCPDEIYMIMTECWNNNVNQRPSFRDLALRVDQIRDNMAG

Row | Compound | IC50 [1] | IC50 [2] | IC50 [3] | IC50 [4]
1 | COc1c(Nc2cc(NC(=O)C3CC3)nc3cc[nH]c(=O)c23)cccc1-c1cnc(C2CCOCC2)s1 [Example 2, N-(4-((2-Methoxy-3-(2-(tetrahydro-2H-pyran-4-yl)thiazol-5-yl)phenyl)amino)-5-oxo-5,6-dihydro-1,6-naphthyridin-2-yl)cyclopropanecarboxamide Trifluoroacetic Acid Salt] | > 10000 nM | > 10000 nM | ≤ 100 nM | ≤ 100 nM
2 | CSc1c(Nc2cc(NC(=O)C3CC3)nc3cc[nH]c(=O)c23)cccc1-c1cnn(C2CCOCC2)c1 [Example 12, N-(4-((2-(Methylthio)-3-(1-(tetrahydro-2H-pyran-4-yl)-1H-pyrazol-4-yl)phenyl)amino)-5-oxo-5,6-dihydro-1,6-naphthyridin-2-yl)cyclopropanecarboxamide Trifluoroacetic Acid Salt] | > 10000 nM | > 10000 nM | 500 to 1000 nM | 500 to 1000 nM
3 | O=C(Nc1cc(Nc2ccccc2CO)c2c(=O)[nH]ccc2n1)C1CC1 [Example 23, N-(4-((2-(Hydroxymethyl)phenyl)amino)-5-oxo-5,6-dihydro-1,6-naphthyridin-2-yl)cyclopropanecarboxamide Trifluoroacetic Acid Salt] | 1000 to 10000 nM | 1000 to 10000 nM | > 10000 nM | 1000 to 10000 nM
4 | COc1cc(-c2cnn(C3CCOCC3)c2)ccc1Nc1cc(NC(=O)C2CC2)nc2cc[nH]c(=O)c12 [Example 7, N-(4-((2-Methoxy-4-(1-(tetrahydro-2H-pyran-4-yl)-1H-pyrazol-4-yl)phenyl)amino)-5-oxo-5,6-dihydro-1,6-naphthyridin-2-yl)cyclopropanecarboxamide Trifluoroacetic Acid Salt] | 1000 to 10000 nM | 1000 to 10000 nM | > 10000 nM | 1000 to 10000 nM
5 | COc1ccccc1Nc1cc(NC(=O)C2CC2)nc2cc[nH]c(=O)c12 [Example 21, N-(4-((2-Methoxyphenyl)amino)-5-oxo-5,6-dihydro-1,6-naphthyridin-2-yl)cyclopropanecarboxamide] | 1000 to 10000 nM | 1000 to 10000 nM | > 10000 nM | 1000 to 10000 nM
6 | O=C(Nc1cc(Nc2cccc(C(F)(F)F)c2-c2cn[nH]c2)c2c(=O)[nH]ccc2n1)C1CC1 [Example 18, N-(4-((2-(1H-pyrazol-4-yl)-3-(trifluoromethyl)phenyl)amino)-5-oxo-5,6-dihydro-1,6-naphthyridin-2-yl)cyclopropanecarboxamide Trifluoroacetic Acid Salt] | > 10000 nM | > 10000 nM | 500 to 1000 nM | 500 to 1000 nM
7 | COc1c(Nc2cc(NC(=O)C3CC3)nc3cc[nH]c(=O)c23)cccc1-c1cnn(C(C)C(N)=O)c1 (centres unmarked) [Example 8, N-(4-((3-(1-(1-Amino-1-oxopropan-2-yl)-1H-pyrazol-4-yl)-2-methoxyphenyl)amino)-5-oxo-5,6-dihydro-1,6-naphthyridin-2-yl)cyclopropanecarboxamide Trifluoroacetic Acid Salt] | 100 to 500 nM | 1000 to 10000 nM | ≤ 100 nM | ≤ 100 nM
8 | CS(=O)(=O)c1c(Nc2cc(NC(=O)C3CC3)nc3cc[nH]c(=O)c23)cccc1-c1cnn(C2CCOCC2)c1 [Example 13, N-(4-((2-(Methylsulfonyl)-3-(1-(tetrahydro-2H-pyran-4-yl)-1H-pyrazol-4-yl)phenyl)amino)-5-oxo-5,6-dihydro-1,6-naphthyridin-2-yl)cyclopropanecarboxamide Trifluoroacetic Acid Salt] | > 10000 nM | > 10000 nM | 1000 to 10000 nM | 1000 to 10000 nM
9 | COc1c(Nc2cc(NC(=O)C3CC3)nc3cc[nH]c(=O)c23)cccc1-c1cnn(C2CCCC2)c1 [Example 3, N-(4-((3-(1-Cyclopentyl-1H-pyrazol-4-yl)-2-methoxyphenyl)amino)-5-oxo-5,6-dihydro-1,6-naphthyridin-2-yl)cyclopropanecarboxamide Trifluoroacetic Acid Salt] | > 10000 nM | > 10000 nM | 100 to 500 nM | 100 to 500 nM
10 | COc1c(Nc2cc(NC(=O)C3CC3)nc3cc[nH]c(=O)c23)cccc1C(F)(F)F [Example 14, N-(4-((2-Methoxy-3-(trifluoromethyl)phenyl)amino)-5-oxo-5,6-dihydro-1,6-naphthyridin-2-yl)cyclopropanecarboxamide Trifluoroacetic Acid Salt] | > 10000 nM | > 10000 nM | 100 to 500 nM | 100 to 500 nM
11 | CNc1ccccc1Nc1cc(NC(=O)C2CC2)nc2cc[nH]c(=O)c12 [Example 22, N-(4-((2-(Methylamino)phenyl)amino)-5-oxo-5,6-dihydro-1,6-naphthyridin-2-yl)cyclopropanecarboxamide Trifluoroacetic Acid Salt] | > 10000 nM | > 10000 nM | > 10000 nM | > 10000 nM
12 | O=C(Nc1cc(Nc2cccc(Cl)c2-c2cn[nH]c2)c2c(=O)[nH]ccc2n1)C1CC1 [Example 16, N-(4-((3-Chloro-2-(1H-pyrazol-4-yl)phenyl)amino)-5-oxo-5,6-dihydro-1,6-naphthyridin-2-yl)cyclopropanecarboxamide Trifluoroacetic Acid Salt] | 1000 to 10000 nM | 1000 to 10000 nM | 500 to 1000 nM | 500 to 1000 nM
13 | Cc1[nH]ncc1-c1c(Cl)cccc1Nc1cc(NC(=O)C2CC2)nc2cc[nH]c(=O)c12 [Example 17, N-(4-((3-Chloro-2-(5-methyl-1H-pyrazol-4-yl)phenyl)amino)-5-oxo-5,6-dihydro-1,6-naphthyridin-2-yl)cyclopropanecarboxamide Trifluoroacetic Acid Salt] | 1000 to 10000 nM | 1000 to 10000 nM | 1000 to 10000 nM | 500 to 1000 nM
14 | COc1c(Nc2cc(NC(=O)C3CC3)nc3cc[nH]c(=O)c23)cccc1N1CCN(S(=O)(=O)C2CC2)CC1 [Example 4, N-(4-((3-(4-(Cyclopropylsulfonyl)piperazin-1-yl)-2-methoxyphenyl)amino)-5-oxo-5,6-dihydro-1,6-naphthyridin-2-yl)cyclopropanecarboxamide Trifluoroacetic Acid Salt] | > 10000 nM | 1000 to 10000 nM | 100 to 500 nM | 100 to 500 nM
